As usually defined, the IC50 is the point on the concentration scale where inhibition reaches its midpoint.

These results are taken from patent publication US20220265845A1, “AMINOTHIOLESTER COMPOUNDS AND USES THEREOF” (ADVANCED BIODESIGN, priority 2019, published 2022).

Format in all cases: biochemical
For assay [1], the target named is T1, Human recombinant ALDH3A1 (Homo sapiens, UniProt P30838).
T1 sequence (P30838 1-453): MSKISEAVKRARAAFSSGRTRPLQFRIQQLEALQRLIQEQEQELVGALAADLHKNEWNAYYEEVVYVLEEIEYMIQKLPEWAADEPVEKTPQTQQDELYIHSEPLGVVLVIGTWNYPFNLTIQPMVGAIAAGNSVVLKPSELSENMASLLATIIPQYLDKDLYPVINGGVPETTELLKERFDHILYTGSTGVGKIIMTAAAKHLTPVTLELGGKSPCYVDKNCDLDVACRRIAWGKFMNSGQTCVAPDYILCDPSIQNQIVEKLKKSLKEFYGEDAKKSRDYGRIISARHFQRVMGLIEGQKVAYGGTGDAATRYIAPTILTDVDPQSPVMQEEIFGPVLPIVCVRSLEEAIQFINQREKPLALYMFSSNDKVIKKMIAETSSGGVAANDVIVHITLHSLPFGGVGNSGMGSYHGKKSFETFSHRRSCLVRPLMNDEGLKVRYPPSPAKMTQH
The experiment in a line: Enzymatic assay with human recombinant ALDH3A1 (NADP+, 4-NBA), IC50. The settings on record: substrate 4-Nitrobenzaldehyde, 37° C. The method, then: For ALDH3A1 (1 mg/mL), 10 μL of enzyme was added into a reaction buffer containing 50 mM Tris, 5 mM DTT, pH 8, plus 40 mM Nicotinamide adenine dinucleotide phosphate (oxidized form, NADP^+) and 4-Nitrobenzaldehyde (4-NBA) (Sigma-.Aldrich). Internal standards were prepared with Nicotinamide adenine dinucleotide phosphate reduced form (NADPH, 5 μM, Sigma-Aldrich) in Reaction Buffer (50 mM Tris, 5 mM DTT, pH 8).
(§1) Time-dependent inhibition assays were performed for 0-2-5-10-15-20-30-45-60 min at 37° C. in 1 mL-quartz cuvette. The formation of NADH was monitored, reading samples at excitation wavelength=340 nm/emission wavelength=460 nm (fluorescence) for at least 600 sec using Cary Eclipse Varian fluorimeter.
(§2) Negative control consisted in the same reactions except that enzyme was not added (enzyme blank). To determine the slope for enzyme blank and calculate product concentration (Unit of fluorescence) the following formulae was used: […]
(§3) where Cst is the standard NADH concentration, Fst is the standard fluorescence and dF/dt is the slope of the time dependent fluorescence (S. Sotobodowska et al, 2012). The specific activity of the enzymes (μmol/min·mg-U/mg) in the absence of presence of inhibitors was calculated as follows: […]

The target in another assay is T2, Human recombinant ALDH2 (Homo sapiens, UniProt P05091).
T2 construct: purchased Creative BioMart, NY, USA
T2 sequence (P05091 18-517): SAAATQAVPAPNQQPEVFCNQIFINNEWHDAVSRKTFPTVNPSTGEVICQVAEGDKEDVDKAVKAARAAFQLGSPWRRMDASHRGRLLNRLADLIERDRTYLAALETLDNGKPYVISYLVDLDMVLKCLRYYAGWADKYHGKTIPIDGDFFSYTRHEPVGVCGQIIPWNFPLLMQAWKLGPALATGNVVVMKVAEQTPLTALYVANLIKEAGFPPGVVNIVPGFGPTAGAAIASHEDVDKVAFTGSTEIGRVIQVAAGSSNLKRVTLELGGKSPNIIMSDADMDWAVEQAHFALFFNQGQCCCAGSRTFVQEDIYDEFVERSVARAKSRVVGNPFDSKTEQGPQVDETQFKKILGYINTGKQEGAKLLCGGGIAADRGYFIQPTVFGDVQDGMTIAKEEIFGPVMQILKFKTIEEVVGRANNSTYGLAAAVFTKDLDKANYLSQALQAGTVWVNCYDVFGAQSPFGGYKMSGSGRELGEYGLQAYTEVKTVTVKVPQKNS
The experiment in a line: Enzymatic assay with human recombinant ALDH (NADH fluorescence), IC50. The conditions noted are these: substrate Hexanal, NAD+, 37° C. The method, then: (§4) Human recombinant ALDH1A1, ALDH1 A2, ALDH1A3, ALDH2 (Creative BioMart, NY, USA) were prepared at 1 mg/mL. The enzymatic reactions were performed using saturating concentrations of substrate. To test the enzymatic activity of the enzymes, 10 μL of enzyme was added into a reaction buffer containing 50 mM HEPES pH 7.2, 30 mM MgCl2, plus 20 mM NAD^+ cofactor and 2 mM Hexanal (Sigma-Aldrich, St. Louis, Mo., USA) in the presence or absence of the different tested compounds. Internal standards were prepared with Nicotinamide adenine dinucleotide reduce form (NADH, 500 μM, Sigma-Aldrich) in Reaction Buffer (50 mM HEPES pH 7.2, 30 mM MgCl2).
as §1, §2, §3

The target of assay [2] is T3, Human recombinant ALDH1A2 (Homo sapiens, UniProt O94788).
T3 construct: purchased Creative BioMart, NY, USA
T3 sequence (O94788 1-518): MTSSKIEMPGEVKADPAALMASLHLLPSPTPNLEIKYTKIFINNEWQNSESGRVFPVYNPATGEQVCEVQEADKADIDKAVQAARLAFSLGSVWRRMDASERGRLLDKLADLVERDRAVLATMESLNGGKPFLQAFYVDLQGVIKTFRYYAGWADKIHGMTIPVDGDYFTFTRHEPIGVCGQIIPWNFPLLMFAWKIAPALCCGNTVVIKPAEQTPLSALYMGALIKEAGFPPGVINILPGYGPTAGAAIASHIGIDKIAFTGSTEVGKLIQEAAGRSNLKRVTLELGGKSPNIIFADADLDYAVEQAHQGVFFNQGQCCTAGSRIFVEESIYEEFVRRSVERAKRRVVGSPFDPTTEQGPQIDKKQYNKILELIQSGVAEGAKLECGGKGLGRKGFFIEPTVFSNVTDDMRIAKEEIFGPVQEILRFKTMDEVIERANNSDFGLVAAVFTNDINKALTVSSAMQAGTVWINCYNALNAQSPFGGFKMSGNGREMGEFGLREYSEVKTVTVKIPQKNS
The description is as above. The conditions noted are these: substrate Hexanal, NAD+, 37° C. The method, then:
as §4, §1, §2, §3

In assay [3] the target is T4, Human recombinant ALDH1A3 (Homo sapiens, UniProt P47895).
T4 construct: purchased Creative BioMart, NY, USA
T4 sequence (P47895 1-512): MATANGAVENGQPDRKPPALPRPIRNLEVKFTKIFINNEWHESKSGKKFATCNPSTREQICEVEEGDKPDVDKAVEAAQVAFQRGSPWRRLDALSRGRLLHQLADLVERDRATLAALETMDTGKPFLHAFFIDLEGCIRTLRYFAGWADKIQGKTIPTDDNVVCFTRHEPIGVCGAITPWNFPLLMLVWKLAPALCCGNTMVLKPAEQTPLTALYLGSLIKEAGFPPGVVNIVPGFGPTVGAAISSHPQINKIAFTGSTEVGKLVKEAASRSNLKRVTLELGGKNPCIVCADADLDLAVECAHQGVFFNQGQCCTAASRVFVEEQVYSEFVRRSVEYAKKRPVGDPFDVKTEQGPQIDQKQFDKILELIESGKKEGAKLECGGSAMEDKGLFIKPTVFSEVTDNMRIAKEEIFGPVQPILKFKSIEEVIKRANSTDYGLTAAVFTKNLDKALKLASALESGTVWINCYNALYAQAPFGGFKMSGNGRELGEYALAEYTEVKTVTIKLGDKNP
The description is as above. The settings on record: substrate Hexanal, NAD+, 37° C. The method, then: as §4, §1, §2, §3

`CSC(=O)C#CC(C)(C)N(C)C` [DIMATE, S-methyl 4-(dimethylamino)-4-methylpent-2-ynethioate, reference compound]: the IC50 in assay [1] was 303 ± 46 µM; at Human recombinant ALDH2, 72 ± 9 µM; in assay [2] it was 18 ± 4 µM; in assay [3] it was 20 ± 2 µM.

In the case of `CSC(=O)C#CC(C)(C)N(C)CCOCc1ccccc1` [Example 3, S-methyl 4-[2-benzyloxyethyl(methyl)amino]-4-methyl-pent-2-ynethioate], the IC50 in assay [1] came out at 242 ± 11 µM; at Human recombinant ALDH2, 3.1 ± 0.8 µM; in assay [2], 0.568 ± 0.09 µM; in assay [3], 3.4 ± 0.1 µM.

For `CSC(=O)C#CC(C)(C)N(C)CCOCc1ccc(C)c(C)c1` [Example 5, S-methyl 4-[2-[(3,4-dimethylphenyl)methoxy]ethyl-methyl-amino]-4-methyl-pent-2-ynethioate], the IC50 in assay [1] was determined as 143 ± 2 µM; at Human recombinant ALDH2, 12 ± 3 µM; in assay [2], 1.3 ± 0.2 µM; in assay [3] it was 4.8 ± 0.1 µM.
